Results published in US20220218852A1, “NOVEL RADIOLABELLED CXCR4-TARGETING COMPOUNDS FOR DIAGNOSIS AND THERAPY” (PROVINCIAL HEALTH SERVICES AUTHORITY, priority 2019, published 2022).
Like-named read-outs stand apart in the source and are kept apart here. Positions of bridges follow the written chain, without caps; N, C: chain ends. Non-standard residues stand in square brackets, D forms with d. Residues, ends and D or L forms follow the SMILES beside them. Groups on a side chain read outwards from the residue. *: point of attachment. DOTA = O=C(O)CN1CCN(CC(=O)O)CCN(CC(=O)*)CCN(CC(=O)O)CC1; 2Nal = N[C@@H](Cc1ccc2ccccc2c1)C(=O)O; Lys(iPr) = CC(C)NCCCC[C@H](N)C(=O)O

Assay: Biodistribution in Z138 tumor-bearing mice
Format: in vivo
Conditions: male, mouse, iv, total radioactivity
Method: For Daudi, Z138, GRANTA519 and Jeko1 xenografts, male NOD.Cg-Rag1^tm1MomII2rg^tm1Wjl/SzJ (NRG) mice were subcutaneously inoculated on the left flank with 5×10^6 cells (100 μL; 1:1 ratio of PBS/Matrigel) and tumors were grown to a size of 200-500 mm^3. For PC-3 xenografts, male NOD.Cg-Rag1^tm1MomII2rg^tm1Wjl/SzJ (NRG) mice were subcutaneously inoculated on the left flank with 5×10^6 PC-3 cells (100 μL; 1:1 ratio of PBS/Matrigel) and tumors were grown to a size of 200-400 mm^3.
The mice were euthanized via CO2 inhalation while anesthetized with isoflurane. Tissues were harvested, washed in PBS, blotted dry, weighed, and measured on a Hidex AMG Automatic Gamma Counter.

[1] = NOD.Cg-Rag1^tm1MomII2rg^tm1Wjl/SzJ (NRG), stomach, read-out: Biodistribution Stomach
[2] = NOD.Cg-Rag1^tm1MomII2rg^tm1Wjl/SzJ (NRG), testes, read-out: Biodistribution Testes
[3] = NOD.Cg-Rag1^tm1MomII2rg^tm1Wjl/SzJ (NRG), tumour (Z138 xenograft), read-out: Biodistribution Z138 (tumour)
[4] = NOD.Cg-Rag1tm1Mom Il2rgtm1Wjl/SzJ (NRG), adrenals, read-out: Biodistribution Adrenals
[5] = NOD.Cg-Rag1tm1Mom Il2rgtm1Wjl/SzJ (NRG), heart, read-out: Biodistribution Heart
[6] = NOD.Cg-Rag1tm1Mom Il2rgtm1Wjl/SzJ (NRG), kidney, read-out: Biodistribution Kidney
[7] = NOD.Cg-Rag1tm1Mom Il2rgtm1Wjl/SzJ (NRG), liver, read-out: Biodistribution Liver
[8] = NOD.Cg-Rag1tm1Mom Il2rgtm1Wjl/SzJ (NRG), lung, read-out: Biodistribution Lung
[9] = NOD.Cg-Rag1tm1Mom Il2rgtm1Wjl/SzJ (NRG), muscle, read-out: Biodistribution Muscle
[10] = NOD.Cg-Rag1tm1Mom Il2rgtm1Wjl/SzJ (NRG), pancreas, read-out: Biodistribution Pancreas
[11] = NOD.Cg-Rag1tm1Mom Il2rgtm1Wjl/SzJ (NRG), spleen, read-out: Biodistribution Spleen

In the case of `CC(C)NCCCC[C@@H]1NC(=O)[C@H](Cc2ccc(O)cc2)NC(=O)[C@H](Cc2ccccc2)NC(=O)CC[C@H](C(=O)N[C@@H](CCCCNC(C)C)C(=O)N[C@@H](CCCCNC(=O)[C@H](CCC(=O)O)NC(=O)[C@H](CCC(=O)O)NC(=O)[C@H](CCC(=O)O)NC(=O)CN2CCN(CC(=O)O)CCN(CC(=O)O)CCN(CC(=O)O)CC2)C(N)=O)NC(=O)CNC(=O)[C@H](Cc2ccc3ccccc3c2)NC(=O)[C@@H](CCCNC(=N)N)NC1=O` [[^177Lu]Lu-BL02, metal not drawn] (FY[Lys(iPr)][dR][2Nal]G[dE][Lys(iPr)]K([Glu-Glu-Glu-DOTA])-NH2; lactam N-7), the tissue uptake at 1 h (NOD.Cg-Rag1^tm1MomII2rg^tm1Wjl/SzJ (NRG), stomach, 1 h, read-out: Biodistribution Stomach) is reported as 0.12 %ID/g, the tissue uptake at 1 h (NOD.Cg-Rag1^tm1MomII2rg^tm1Wjl/SzJ (NRG), stomach, 1 h blocked, read-out: Biodistribution Stomach) is reported as 0.2 %ID/g and the tissue uptake at 4 h [1] is reported as 0.07 %ID/g. It also gave a tissue uptake at 24 h [1] of 0.052 %ID/g, a tissue uptake at 72 h [1] of 0.022 %ID/g and a tissue uptake at 1 h (NOD.Cg-Rag1^tm1MomII2rg^tm1Wjl/SzJ (NRG), testes, 1 h, read-out: Biodistribution Testes) of 0.18 %ID/g. For the same compound, the tissue uptake at 4 h [2] was 0.04 %ID/g, the tissue uptake at 24 h [2] was 0.032 %ID/g and the tissue uptake at 72 h [2] was 0.029 %ID/g. It also gave a tissue uptake at 1 h (NOD.Cg-Rag1^tm1MomII2rg^tm1Wjl/SzJ (NRG), testes, with LY2510924 7.5 μg i.p. 15 min before radiotracer, 1 h blocked, read-out: Biodistribution Testes) of 0.39 %ID/g, a tissue uptake at 1 h (NOD.Cg-Rag1^tm1MomII2rg^tm1Wjl/SzJ (NRG), tumour (Z138 xenograft), 1 h, read-out: Biodistribution Z138 (tumour)) of 17.2 %ID/g and a tissue uptake at 1 h (NOD.Cg-Rag1^tm1MomII2rg^tm1Wjl/SzJ (NRG), tumour (Z138 xenograft), 1 h blocked, read-out: Biodistribution Z138 (tumour)) of 3.75 %ID/g. For the same compound, the tissue uptake at 4 h [3] was 15.6 %ID/g, the tissue uptake at 24 h [3] was 8.79 %ID/g and the tissue uptake at 72 h [3] was 3.57 %ID/g. For the same compound, the tissue uptake at 1 h (NOD.Cg-Rag1tm1Mom Il2rgtm1Wjl/SzJ (NRG), adrenals, 1 h, read-out: Biodistribution Adrenals) was 0.46 %ID/g, the tissue uptake at 1 h (NOD.Cg-Rag1tm1Mom Il2rgtm1Wjl/SzJ (NRG), adrenals, 1 h blocked, read-out: Biodistribution Adrenals) was 0.47 %ID/g and the tissue uptake at 4 h [4] was 0.13 %ID/g. For the same compound, the tissue uptake at 24 h [4] was 0.117 %ID/g, the tissue uptake at 72 h [4] was 0.073 %ID/g and the tissue uptake at 1 h (NOD.Cg-Rag1tm1Mom Il2rgtm1Wjl/SzJ (NRG), heart, 1 h, read-out: Biodistribution Heart) was 0.18 %ID/g. For the same compound, the tissue uptake at 1 h (NOD.Cg-Rag1tm1Mom Il2rgtm1Wjl/SzJ (NRG), heart, 1 h blocked, read-out: Biodistribution Heart) was 0.46 %ID/g, the tissue uptake at 4 h [5] was 0.05 %ID/g and the tissue uptake at 24 h [5] was 0.035 %ID/g. For the same compound, the tissue uptake at 72 h [5] was 0.022 %ID/g, the tissue uptake at 1 h (NOD.Cg-Rag1tm1Mom Il2rgtm1Wjl/SzJ (NRG), kidney, 1 h, read-out: Biodistribution Kidney) was 3.87 %ID/g and the tissue uptake at 1 h (NOD.Cg-Rag1tm1Mom Il2rgtm1Wjl/SzJ (NRG), kidney, 1 h blocked, read-out: Biodistribution Kidney) was 10.9 %ID/g. For the same compound, the tissue uptake at 4 h [6] was 3.27 %ID/g, the tissue uptake at 24 h [6] was 1.43 %ID/g and the tissue uptake at 72 h [6] was 0.56 %ID/g. For the same compound, the tissue uptake at 1 h (NOD.Cg-Rag1tm1Mom Il2rgtm1Wjl/SzJ (NRG), liver, 1 h, read-out: Biodistribution Liver) was 0.93 %ID/g, the tissue uptake at 1 h (NOD.Cg-Rag1tm1Mom Il2rgtm1Wjl/SzJ (NRG), liver, 1 h blocked, read-out: Biodistribution Liver) was 0.99 %ID/g and the tissue uptake at 4 h [7] was 0.92 %ID/g. The tissue uptake at 24 h [7] was 0.703 %ID/g, the tissue uptake at 72 h [7] was 0.436 %ID/g and the tissue uptake at 1 h (NOD.Cg-Rag1tm1Mom Il2rgtm1Wjl/SzJ (NRG), lung, 1 h, read-out: Biodistribution Lung) was 0.83 %ID/g. The tissue uptake at 1 h (NOD.Cg-Rag1tm1Mom Il2rgtm1Wjl/SzJ (NRG), lung, 1 h blocked, read-out: Biodistribution Lung) was 1.57 %ID/g, the tissue uptake at 4 h [8] was 0.26 %ID/g and the tissue uptake at 24 h [8] was 0.176 %ID/g. It also gave a tissue uptake at 72 h [8] of 0.184 %ID/g, a tissue uptake at 1 h (NOD.Cg-Rag1tm1Mom Il2rgtm1Wjl/SzJ (NRG), muscle, 1 h, read-out: Biodistribution Muscle) of 0.1 %ID/g and a tissue uptake at 1 h (NOD.Cg-Rag1tm1Mom Il2rgtm1Wjl/SzJ (NRG), muscle, 1 h blocked, read-out: Biodistribution Muscle) of 0.45 %ID/g. For the same compound, the tissue uptake at 4 h [9] was 0.03 %ID/g, the tissue uptake at 24 h [9] was 0.019 %ID/g and the tissue uptake at 72 h [9] was 0.01 %ID/g. The tissue uptake at 1 h (NOD.Cg-Rag1tm1Mom Il2rgtm1Wjl/SzJ (NRG), pancreas, 1 h, read-out: Biodistribution Pancreas) was 0.14 %ID/g, the tissue uptake at 1 h (NOD.Cg-Rag1tm1Mom Il2rgtm1Wjl/SzJ (NRG), pancreas, 1 h blocked, read-out: Biodistribution Pancreas) was 0.31 %ID/g and the tissue uptake at 4 h [10] was 0.04 %ID/g. The tissue uptake at 24 h [10] was 0.034 %ID/g, the tissue uptake at 72 h [10] was 0.016 %ID/g and the tissue uptake at 1 h (NOD.Cg-Rag1tm1Mom Il2rgtm1Wjl/SzJ (NRG), spleen, 1 h, read-out: Biodistribution Spleen) was 0.56 %ID/g. It also gave a tissue uptake at 1 h (NOD.Cg-Rag1tm1Mom Il2rgtm1Wjl/SzJ (NRG), spleen, 1 h blocked, read-out: Biodistribution Spleen) of 0.56 %ID/g, a tissue uptake at 4 h [11] of 0.33 %ID/g and a tissue uptake at 24 h [11] of 0.277 %ID/g. The tissue uptake at 72 h [11] was 0.288 %ID/g.
